Series [1] deals with myocardial lesions induced by ischemia-reperfusion. The following applies: rats; cited from earlier work.
Series [2] can be described thus: Relaxivity in water (relaxometer). The class given is physicochemical. To be noted: 38° C., IBM PC/20 multispec relaxometer. From the text: (§1) Relaxivity of a paramagnetic material in the presence of a large protein such as human serum albumin may be used to study the ability of the compounds of the present invention to bind the target protein. As such, when a small molecule binds a large protein, the relaxivity of the former will increase because of an increase in its rotational correlation time. This increase in relaxivity may be used not only to measure the extent of binding but also to evaluate the viability of the paramagnetic agent as a blood pool contrast medium.
(§2) The relaxivity of the conjugates 22a and 22b in water as well as in water containing a known amount (20%, v/v) of a HSA preparation, known as, seronom (Table 1) were studied.
(§3) The relaxation time of the samples (22a or 22b) in seronom (T1Gd-ligand in seronom) and in water (T1Gd-ligand in water) were measured at 38° C. using an IBM PC/20 multispec relaxometer. The relaxivity of the samples in seronom (r1Gd-ligand in seronom) and in water (r1Gd-ligand in water) were calculated by the following equations: r1Gd-ligand in seronom=(1/T1Gd-ligand in seronom−1/T1seronom)/[Gd-ligand] r1Gd-ligand in water=(1/T1Gd-ligand in water−1/T1water)/[Gd-ligand],
(§4) where [Gd-ligand] is the concentration of the chelate 22a or 22b, which was determined by ICP^11; T1seronom is the relaxation time for pure aqueous seronom; T1water is the relaxation time for pure water.

Series [3] concerns the target T1, seronom (HSA preparation) (Homo sapiens, UniProt P02768). Description: Fraction bound in aqueous seronom by centrifree micropartition ultrafiltration and ICP [Gd]. The following applies: centrifuged 500 xg 45 min, [Gd] by ICP. It is filed as in vitro ADME. Here is the method: After the measurement, the sample in aqueous seronom was placed in a centrifree micropartition device (Millipore, Beverly, Mass.). The device was centrifuged at 500 xg for 45 min in a fixed angle rotor (Beckman Model J2-21M, JA-20 rotor). The solution (0.5 mL) was taken from below the filter (unbound Gd-ligand) for [Gd] ICP measurement. The [Gd] of the uncentrifuged sample was also measured as a control. The Fraction Bound was calculated by the following equation: Fraction Bound=([Gd-ligand]control−[Gd-ligand]unbound)/[Gd-ligand]control. Table 1 details the results of the tests.

Series [4] addresses T1, seronom (HSA preparation). Description: Relaxivity in water containing 20% v/v seronom (HSA preparation). The class given is physicochemical. The following applies: for Relaxivity in aqueous seronom r1Gd-ligand in seronom: 38° C., water containing 20% v/v seronom; for increase in relaxivity in the presence of seronom: seronom versus water.
From the text: as §1, §2, §3, §4

Structures can show the parent of a compound that is named as a salt.

T1 sequence (P02768 25-609): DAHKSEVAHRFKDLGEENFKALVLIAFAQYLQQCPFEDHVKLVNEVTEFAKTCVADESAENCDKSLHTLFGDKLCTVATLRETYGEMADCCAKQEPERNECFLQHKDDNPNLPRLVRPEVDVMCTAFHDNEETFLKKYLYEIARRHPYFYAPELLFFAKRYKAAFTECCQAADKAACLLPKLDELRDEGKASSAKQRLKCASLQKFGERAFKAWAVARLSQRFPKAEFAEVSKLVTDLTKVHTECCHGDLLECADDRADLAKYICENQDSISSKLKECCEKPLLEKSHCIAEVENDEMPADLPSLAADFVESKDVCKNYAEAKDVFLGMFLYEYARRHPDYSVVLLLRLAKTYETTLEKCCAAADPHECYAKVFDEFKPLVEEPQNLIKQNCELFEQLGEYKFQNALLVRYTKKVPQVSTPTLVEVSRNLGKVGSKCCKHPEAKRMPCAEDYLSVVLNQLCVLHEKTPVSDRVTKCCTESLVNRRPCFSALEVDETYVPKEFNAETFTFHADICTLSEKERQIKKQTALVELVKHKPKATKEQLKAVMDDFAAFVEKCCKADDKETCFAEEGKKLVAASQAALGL

For `CCCCCCCCCCCCCCCCCCOC1=C(O)[C@@H]([C@@H](O)CO)OC1=O` [2-O-octadecylascorbic acid], the “inhibition of myocardial lesions induced by ischemia-reperfusion” value in series [1] is “markedly inhibit”.

As to `O=C(O)CN1CCN(CC(=O)O)CCN(CC(=O)NCC(=O)NCC2CCC(C(=O)NC[C@@H](O)[C@@H]3OC(=O)C(O)=C3O)CC2)CCN(CC(=O)O)CC1` (stereo partly drawn) [Compound 22b, 1,4,7,10-tetraazacyclododecane-1,4,7-triacetic acid, 10-[2-[[2-[[[4-[[[(2R)-2-[(2S)-2,5-dihydro-3,4-dihydroxy-5-oxo-2-furanyl]-2-hydroxyethyl]amino]carbonyl]cyclohexyl]methyl]amino]-2-oxoethyl]amino]2-oxoethyl]-, gadolinium salt], the “Relaxivity in water r1Gd-ligand in water” value in series [2] was 7.20 mM⁻¹ s⁻¹. Moreover, in series [3], the free fraction (fraction unbound) – broadly, the share of the substance not bound to proteins or other matrix – was 0.891. Moreover, in series [4], the “Relaxivity in aqueous seronom r1Gd-ligand in seronom” value was found to be 8.18 mM⁻¹ s⁻¹ and the “increase in relaxivity in the presence of seronom” value worked out at 14%.

`O=C(O)CN1CCN(CC(=O)O)CCN(CC(=O)NCC(=O)NC[C@@H](O)[C@@H]2OC(=O)C(O)=C2O)CCN(CC(=O)O)CC1` [Compound 22a, 1,4,7,10-tetraazacyclododecane-1,4,7-triacetic acid, 10-[2-[[2-[[(2R)-2-[(2S)-2,5-dihydro-3,4-dihydroxy-5-oxo-2-furanyl]-2-hydroxyethyl]amino]-2-oxoethyl]amino]2-oxoethyl]-, gadolinium salt]: the “Relaxivity in water r1Gd-ligand in water” value in series [2] is 4.83 mM⁻¹ s⁻¹. This molecule had a fraction unbound in series [3] of 0.912. Also, in series [4], the “Relaxivity in aqueous seronom r1Gd-ligand in seronom” value is 6.38 mM⁻¹ s⁻¹ and the “increase in relaxivity in the presence of seronom” value is 32%.

Values taken from US7582280B2, “Conjugates of antioxidants with metal chelating ligands for use in diagnostic and therapeutic applications” (Bracco International B.V., priority 2000, dated 2009).
